Results on two compounds are retold here after patent US20070099962A1, “5,6-Dihydropyrin-2-one compounds useful as inhibitors of thrombin” (priority 2003, published 2007).

Each structure is given as a SMILES string.

In this assay the target is T1, Human α-thrombin (Homo sapiens, UniProt P00734).
T1 construct: Human α-thrombin, Sigma Chemical Co. or Hematologic Technologies; purchased Sigma Chemical Co. or Hematologic Technologies
Briefly: Test B: Determination of Thrombin Inhibition with a Chromogenic, Robotic Assay. The class given is biochemical. As to conditions: chromogenic substrate S-2366, 40 minutes incubation at 37° C. The text has this:
The thrombin clotting time (TT) is expressed as absolute values (seconds) as well as the ratio of TT without inhibitor (TT0) to TT with inhibitor (TTi). The latter ratios (range 1-0) are plotted against the concentration of inhibitor (log transformed) and fitted to sigmoidal dose-response curves according to the equation y=a/[1+(x/IC50)^s] where: a=maximum range, i.e. 1; s=slope of the dose-response curve; and IC50=the concentration of inhibitor that doubles the clotting time. The calculations are processed on a PC using the software program GraFit Version 3, setting equation equal to: Start at 0, define end=1 (Erithacus Software, Robin Leatherbarrow, Imperial College of Science, London, UK). […]
The thrombin inhibitor potency is measured with a chromogenic substrate method, in a Plato 3300 robotic microplate processor (Rosys AG, CH-8634 Hombrechtikon, Switzerland), using 96-well, half volume microtitre plates (Costar, Cambridge, Mass., USA; Cat No 3690). Stock solutions of test substance in DMSO (72 μL), 0.1-1 mmol/L, are diluted serially 1:3 (24+48 μL) with DMSO to obtain ten different concentrations, which are analysed as samples in the assay. […] The linear absorbance increment during 40 minutes incubation at 37° C. is used for calculation of percentage inhibition for the test samples, as compared to blanks without inhibitor. […]

The term IC50 denotes the point on the concentration scale where inhibition reaches its midpoint. In turn, `CC1=C(CC(=O)NCc2ccc(C(=N)N)cc2)C(=O)N(NS(=O)(=O)c2cccc3ccccc23)CC1` [2(iii), N-(4-Carbamimidoylbenzyl)-2-[4-methyl-1-(naphthalene-1-sulfonylamino)-2-oxo-1,2,5,6-tetrahydropyridin-3-yl]acetamide] returned an IC50 of 25.6 nM.

The compound `CC1=C(CC(=O)NCc2ccc(C(=N)N)cc2)C(=O)N(NS(=O)(=O)Cc2ccccc2)CC1` [2(i), N-(4-Carbamimidoylbenzyl)-2-(4-methyl-2-oxo-1-phenylmethanesulfonylamino-1,2,5,6-tetrahydropyridin-3-yl)acetamide] displayed an IC50 of 240 nM.
